Experimental data from patent US5747536A, “Pharmaceutical composition comprising L-carnitine or derivative thereof and trihydroxy or tetrahydroxystilbene” (Sigma-Tau Industrie Farmaceutiche Riunite S.p.A., priority 1995, dated 1998).

Experiments:
[1] = system: platelet-rich plasma (PRP); test: Platelet aggregation induced by collagen in platelet-rich plasma, photometric (Born); assay type: cell-based, human (volunteers); conditions: collagen 2.5 ng/ml, 10 minutes of incubation
Protocol: Platelet-rich plasma (PRP) was obtained from the blood of volunteers by centrifuging the plasma at 145 x g for 5 min at 22° C. The number of platelets was determined using a CA 580A (Delcon) Platelet Counter. The number of platelets was brought down to a fixed value of […] by adding platelet-poor plasma (PPP). PPP was obtained by centrifuging blood at 1600 x g for 10 min at 22° C.
Platelet aggregation was determined photometrically (Born G.V.R., Nature 194, 927, 1962) using an Elvi 840 aggregometer in plastic test tubes under continual stirring at 1000 rpm. The maximum light transmission (100%) was measured with PPP readings, whereas 0% transmission was measured with PRP readings.
The degree of aggregation of PRP induced by the aggregating agent (collagen at 2.5 to 5 ng/ml) was calculated as a percentage of maximum transmission of light obtained with PPP using […] PRP samples.
Aggregation was measured in basal conditions and after 10 minutes of incubation with L-carnitine, resveratrol, grape extract, and combinations of these preparations.

[2] = system: atherosclerotic vascular lesions (aorta); test: Experimental atherosclerosis induced by atherogenic diet (Malinow method); assay type: in vivo; conditions: atherogenic diet for 6 consecutive weeks; male Wistar rats
[3] = system: cyclo-oxygeNases; conditions: Kimura et al. 1985; cited from earlier work
[4] = system: lipo-oxygenases; conditions: Kimura et al. 1985; cited from earlier work
[5] = Kimura et al. 1983; cited from earlier work
[6] = system: platelet aggregation induced by collagen or ADP; conditions: Fitzpatrick et al. 1993; cited from earlier work
[7] = system: formation of nitroxides; conditions: Fitzpatrick et al. 1993; cited from earlier work
[8] = system: production of thromboxanes and leukotrienes; synthesis of eicosanoids; conditions: cited from earlier work

Compound	IC50 ([1]; Homo sapiens, Platelet, 10 min, read-out: ED50, inhibition of the platelet aggregation induced by collagen)	atherosclerotic vascular lesions (in words) [2]	inhibition of cyclo-oxygenases (in words) [3]	inhibition of lipo-oxygenases (in words) [4]	antihyperoxidative ability (in words) [5]	inhibition of platelet aggregation induced by collagen or ADP (in words) [6]	formation of nitroxides with a vasodilatory action (in words) [7]	production of thromboxanes and leukotrienes (in words) ([8]; Kimura et al. 1985)	synthesis of eicosanoids (in words) ([8]; background statement)	effect on platelet aggregation (in words) [1]
Oc1ccc(C=Cc2cc(O)cc(O)c2)cc1 [resveratrol, 3,4',5-trihydroxystilbene]	3.5 ng/mL	reduced	inhibit	inhibit	antihyperoxidative ability	inhibiting platelet aggregation induced by collagen or ADP	promoting the formation of nitroxides with a vasodilatory action	reduction in the production of thromboxanes and leukotrienes	ability to modulate the synthesis of eicosanoids	–
C[N+](C)(C)C[C@H](O)CC(=O)[O-] [carnitine, L-carnitine]	–	reduced	–	–	–	–	–	–	–	no significant change
